Experiment [1] deals with leptin, beta endorphin, cortisol. To be noted: humans with alcohol dependence; cited from earlier work.
The test system of experiment [2] is extracellular dopamine levels in the nucleus accumbens. Conditions: rats; dependent on glycine receptor activation; cited from earlier work.
Experiment [3] concerns sAPPα. The experiment is described as follows: plasma sAPPα by ELISA pre- and post-acamprosate. The format is in vivo, human. The procedure:
Test plasma samples are measured soon after collection. When necessary test samples of plasma were frozen but not subjected to repeated freeze/thaw cycles. The test samples were thawed just before use at a low temperature and mixed them completely. If necessary, the plasma samples can be diluted appropriately with the EIA buffer, and assay may be performed in duplicate measurements for the test samples and standards. Test samples in neutral pH range were used, and steps were taken to avoid the contamination with of organic solvents. Regarding the standard to quantify the sAPPα levels, a series of sAPPα standards in EIA buffer by serial dilutions, from 0.78 ng/mL to 50 ng/mL were prepared.
The ELISA plates were pre-coated with anti-human sAPPα(2B3) mouse IgG-monoclonal affinity purified (IBL). First, the wells for the reagent blank were determined, and 100 μL each of “EIA buffer” or 10 mM NaHCO3 (pH9.5) buffer was placed into each of the wells. Likewise, wells were assigned for test sample blanks, test samples and diluted standards. Next, 100 μL each of test sample blank, test sample and dilutions of standard was added to into the appropriate wells. The test sample included the plasma sample from each subject, which may vary from 5-25 μl, made up to 100 μL with the EIA buffer. The pre-coated plate was incubated overnight at 4° C. after covering it tightly with a plate lid. The plate was kept onto a rocker with gentle shaking Next day, each well of the pre-coated plate was vigorously washed with wash buffer containing 0.05% Tween 20 in phosphate buffer. This was done by filling each well with the wash buffer, leaving the pre-coated plate laid for 15-30 seconds and removing wash buffer completely from the plate by snapping. This procedure was repeated five times. After removing the remaining liquid from all wells completely by snapping the plate onto paper towel, 100 μL of labeled antibody solution was added into the wells of test samples, diluted standard and test sample blank. HRP-conjugated and labeled anti-Human APP (R101A4) mouse IgG from IBL was used. Each plate was incubated for 30 minutes at 4° C. after covering it with plate lid, and then washed the plate 5 times in the same manner as described before. To develop the color, 100 μL of the Chromogen (TMB solution) was added to into the wells, and the plate was incubated for 30 minutes at room temperature in the dark. When the liquid started turning blue (by addition of the Chromogen), 100 μL of the Stop solution (1N H2SO4) was added into the wells. The liquid was mixed by tapping the side of plate, and the liquid turned yellow by addition of the Stop solution. […] A plate reader was used and measurements were conducted measurement at 450 nm against a reagent blank. […]
A general note: In an ELISA, binding on a coated surface is turned into a signal by an enzyme label.

For experiment [4], the system named is youth with autistic disorder (idiopathic ASD). The experiment is described as follows: 12-week single-blind placebo lead-in trial of acamprosate in youth with autistic disorder: behavioral outcome measures. The format is in vivo, human. The protocol: One study was a 12-week single-blind, placebo-controlled trial of acamprosate in 12 youths with autistic disorder was conducted. The primary outcome measured was the Clinical Global Impression Improvement (CGI-I) scale with several additional behavioral secondary outcome measures employed. In this study, secreted amyloid precursor protein (sAPP) was measured pre- and post acamprosate treatment as blood biomarker assay Result: Twelve subjects (mean age=10.4 yrs.) entered the study and nine subjects completed a two week placebo lead-in and entered active treatment (mean final dose=1,073 mg/day). Six of nine (67%) subjects receiving acamprosate were judged treatment responders with a CGI-I score of 1 “very much improved” or 2 “much improved”. […] Among secondary outcome measures analyzed, significant acamprosate-associated improvement was noted on measures of social behavior and hyperactivity. Acamprosate use was also associated with reductions in sAPP levels.
The first project enrolled 12 youth aged 5 to 17 years with fragile X syndrome and comorbid ASD in a 10-week open-label trial of acamprosate. The second project enrolled 12 youth aged 5 to 17 years diagnosed with idiopathic ASD in a 12-week single-blind placebo lead-in study of acamprosate. In both projects, concomitant dosing of psychotropic drugs remained stable throughout study. In each project, pre- and post-acamprosate treatment plasma levels of sAPP total and sAPPα were obtained. All APP assay samples were collected, chilled, and walked within 2 hours of blood draw to the lab for analysis. Plasma sAPP total and sAPPα were determined in […] using the ELISA kit obtained from Immuno Biological Laboratories (IBL, Gumma, Japan). The ELISA kit is validated to measure levels of sAPPα in human samples and able to detect as low as 0.09 ng/ml of sAPPα in a typical sample, with only 0.3% cross-reactivity to sAPPβ. Levels of sAPP total and sAPPα in plasma were reported in nanograms per milliliter (ng/mL). Statistical analysis of pre- and post-acamprosate sAPP total and sAPPα levels were conducted using paired T-tests. Finally an exploratory post-hoc analysis of potential correlation between percent change in sAPP total or sAPPα and percent change in scores on the Aberrant Behavior Checklist Social Withdrawal/Lethargy subscale (ABC-SW) was conducted. The ABC-SW measures social impairment which is a core symptom domain of ASD. Post-hoc analysis was done with Spearman correlation calculations. All data was analyzed in IBM SPSS Version 20.
A 12-week single-blind, placebo-controlled trial of the effect of acamprosate in the treatment of 12 youths with autistic disorder aged 5 to 17 years was carried out. In order to pilot test use of acamprosate in youth with autism targeting core social impairment, was conducted. All subjects and their family members were blinded to treatment status. All subjects participated in a 2 week placebo-lead-in phase prior to 10 weeks of treatment with acamprosate. For this project, enteric coated commercially available 333 mg acamprosate pills were over-encapsulated and identical matching placebo manufactured for the project. Placebo-responders, defined by a Clinical Global Impressions Improvement scale (CGI-I) score of 1 “very much improved” or 2 “much improved” (ratings anchored to core social deficits) at week 2 were asked to exit the study. During active treatment with acamprosate, dosing was increased in 333 mg increments per week over the first six weeks of active treatment to a maximum dose of 1,332 mg/day (weight<5 60 kg) or 1,998 mg/day (weight>60 kg). During the final four weeks of active drug treatment, subjects were maintained on a stable highest tolerated (optimal) dose. The primary outcome measure was the clinician-rated CGI-I anchored to symptoms of social impairment. […]

Experiment [5] relates to NMDA glutamate receptor. Conditions: animal studies; cited from earlier work.

The source of these data is patent publication US9770423B2, “Modulation sAPP, sAAPα and BDNF levels in individuals diagnosed with FXS and ASD” (Indiana University Research and Technology Corp., priority 2012, dated 2017).

Values joined by “and” are separate entries in the source; they are usually repeats but may differ in a detail not shown here. Identical values can stand only once.

With `CC(=O)NCCCS(=O)(=O)O.[Ca]` [acamprosate, Calcium Acetylhomotaurine], in experiment [1], the hormone levels entry was “lowers levels of several hormones: leptin, beta endorphin, cortisol”. Moreover, the “extracellular dopamine levels in the nucleus accumbens” value in experiment [2] was “elevates extracellular dopamine levels”. In addition, the “fractional change in sAPPα-CP” value in experiment [3] (individual patients 1-6, baseline to Week 12) is −0.7108 and −0.3184 and 0 and −0.02825 and −0.5967 and −0.4596. Moreover, the “sAPPα-CP, Week 12” value in experiment [3] (individual patients 1-6, titled as diagnosed with FXS, after treatment) is 2.486 ng/mL and 5.056 ng/mL and 2.764 ng/mL and 4.778 ng/mL and 7.417 ng/mL and 2.694 ng/mL. For the same compound, in experiment [3] (pooled 15 participants (9 FXS, 6 idiopathic ASD), pre-treatment 8.4±7.9 ng/mL, p=0.003), the “mean sAPPα post-treatment” value stood at 5.5 ± 7.2 ng/mL. Also, the “mean sAPPα levels at endpoint” value in experiment [3] (six subjects of the 12-week trial, baseline 7.8 ng/mL, p=0.03) was 4.2 ng/mL. Also, in experiment [4] (autistic disorder, baseline 4.22+/-0.4, p=0.013), the CGI-S at endpoint is recorded as 3.7+/−0.5. For the same compound, in experiment [4] (autistic disorder, baseline 14.1+/-8.5, p=0.019), the “ABC Lethargy/Social Withdrawal subscale (ABC-SW) at endpoint” value is given as 10.0+/−8.4. For the same compound, the “ABC Hyperactivity subscale at endpoint” value in experiment [4] (autistic disorder, baseline 25.4+/-12.6, p=0.005) was 16.6+/−12.4. The ADHD-RS at endpoint in experiment [4] (autistic disorder, baseline 29.5+/-10.4, p=0.002) is 20.75+/−9.7. For the same compound, the “SRS total raw score at endpoint” value in experiment [4] (autistic disorder, baseline 107+/-28, p=0.002) was 91.4+/−30. For the same compound, the “mean CGI-I at last visit” value in experiment [4] (nine subjects, last observation carried forward) is 2. For the same compound, the “treatment responders, number of subjects” value in experiment [4] (of 9 youth with idiopathic ASD) is recorded as 6. Besides, the “treatment responders (CGI-I score of 1 or 2)” value in experiment [4] (six of nine subjects receiving acamprosate, autistic disorder, mean final dose 1,073 mg/day) is 67%. Further, in experiment [5], the “action at the NMDA glutamate receptor” value was “bind and act as an antagonist”.
